Data taken from patent publication US20080004290A1, “Anti-Cancer Agents” (THE UNIVERSITY OF QUEENSLAND, priority 2003, published 2008).
Read-outs that look alike come from different tables or passages of the source.

Tests used:
Type in all cases: cell-based, human
MM96L melanoma cells = experiment: Cell survival assay (clonogenic survival, SRB); conditions: for IC50: MM96L; for SI (Selectivity Index = IC50 (NFF)/IC50 (MM96L)): NFF vs MM96L; for Selectivity Index MM96L: Table 13, S enantiomer, IC50(NFF)/IC50(cancer cell line)
Summary of the method: (§1)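 Cells (5×10^3/well, RPMI 1640 with 10% FCS) treated 24 h with compound at 0.01-10 μg/mL, then washed and grown 72 h drug-free at 37 °C, 5% CO2. Survival read by SRB staining after methylated-spirit fixation, absorbance 564 nm.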

JAM ovarian cancer cells = experiment: Cell survival assay (SRB); conditions: for IC50: read-out: Cytoselectivities (nM) JAM; for Selectivity Index JAM: Table 13, S enantiomer, IC50(NFF)/IC50(cancer cell line)
Method: (§2) Cell Lines and Culture Medium. All cell lines used in this study have been described previously (Parsons et al., 1986; Todaro et al., 1980; Glenn et al., 2004). All cell lines were cultured in 10% heat-inactivated foetal calf serum (CSL, Australia) in RPMI 1640 medium supplemented with 100 U/mL penicillin, 100 μg/mL streptomycin, and 3 mM HEPES at 5% CO2, 99% humidity at 37° C. Primary human fibroblasts were obtained from neonatal foreskins and cultured in the above medium. Routine mycoplasma tests were performed using Hoechst stain^i and were always negative.
(§3) Cell Survival Assay. Cells were plated into 96-well microtitre plates at 5×10^3 cells/well, and allowed to adhere overnight. Test compounds were added to culture medium at the indicated concentrations, and plates incubated in the above conditions for 24 hours. Following this incubation period, compounds and media were removed, and replaced with fresh culture medium. Cells were then grown for a further 72 hours before assay using sulforhodamine B (SRB; Sigma, St. Louis, Mo.) as previously described. Briefly, the culture medium was removed from the 96-well microtitre plates and the plates washed twice with phosphate buffered saline (PBS), before the cells were fixed with methylated spirits for 15 minutes. The plates were then rinsed with tap water and the fixed cells stained with 50 μL/well of SRB solution (0.4% sulforhodamine B (w/v) in 1% (v/v) acetic acid) over a period of 1 hour. The SRB solution was then removed from the wells and the plates rapidly washed two times with 1% (v/v) acetic acid. Protein bound dye was then solubilised with the addition of 100 μL of 10 mM unbuffered Tris, and incubated for 15 min at 25° C. Plates were then read at 564 nm on a VERSA max tunable microplate reader (Molecular Devices, Sunnyvale, Calif.).
(§4) For comparison their results are also shown for MM96L and NFF cell lines.

[1] = tested on: MCF-7 breast cancer cells; experiment: Cell survival assay (SRB); conditions: for IC50: MCF-7 (breast), read-out: Cytoselectivities (nM) MCF-7; for Selectivity Index MCF-7: Table 13, S enantiomer, IC50(NFF)/IC50(cancer cell line)
Method: as §2, §3, §4

[2] = tested on: DU145 prostate cancer cells; experiment: Cell survival assay (SRB); conditions: for IC50: DU145 (prostate), read-out: Cytoselectivities (nM) DU145; for Selectivity Index DU145: Table 13, S enantiomer, IC50(NFF)/IC50(cancer cell line)
Method: as §2, §3, §4

SkMel28 melanoma cells = experiment: Cell survival assay (SRB); conditions: for IC50: SK-MEL-28 (melanoma), read-out: Cytoselectivities (nM) SK-MEL-28; for Selectivity Index SK-MEL-28: Table 13, S enantiomer, IC50(NFF)/IC50(cancer cell line)
Method: as §2, §3, §4

[3] = tested on: CI-80-13S ovarian cancer cells; experiment: Cell survival assay (SRB); conditions: for IC50: read-out: Cytoselectivities (nM) CI80-13S; for Selectivity Index CI80-13S: Table 13, S enantiomer, IC50(NFF)/IC50(cancer cell line)
Method: as §2, §3, §4

[4] = tested on: NFF, neonatal foreskin fibroblasts; experiment: Cell survival assay (clonogenic survival, SRB), normal cells; conditions: Homo sapiens, Fibroblast, NFF normal fibroblasts; 24 h with compound, further 72 h growth, SRB; read-out: IC50 (uM) NFF
Summary of the method: as §1

PC-3 cells = experiment: Cell survival assay (SRB); conditions: for IC50: PC-3, read-out: Cytoselectivities (nM) PC-3; for Selectivity Index PC-3: Table 13, S enantiomer, IC50(NFF)/IC50(cancer cell line)
Method: as §2, §3

HOP62 cells = experiment: Cell survival assay (SRB); conditions: for IC50: HOP62 (lung), read-out: Cytoselectivities (nM) HOP62; for Selectivity Index HOP62: Table 13, S enantiomer, IC50(NFF)/IC50(cancer cell line)
Method: as §2, §3

SK-MEL-5 cells = experiment: Cell survival assay (SRB); conditions: for IC50: SK-MEL-5, read-out: Cytoselectivities (nM) SK-MEL-5; for Selectivity Index SK-MEL-5: Table 13, S enantiomer, IC50(NFF)/IC50(cancer cell line)
Method: as §2, §3

Col208 cells = experiment: Cell survival assay (SRB); conditions: for IC50: Homo sapiens, Col208 (colon), read-out: Cytoselectivities (nM) Col208; for Selectivity Index Col208: Table 13, S enantiomer, IC50(NFF)/IC50(cancer cell line)
Method: as §2, §3

A549 cells = experiment: Cell survival assay (SRB); conditions: for IC50: A549 (lung), read-out: Cytoselectivities (nM) A549; for Selectivity Index A549: Table 13, S enantiomer, IC50(NFF)/IC50(cancer cell line)
Method: as §2, §3

HT29 cells = experiment: Cell survival assay (SRB); conditions: for IC50: HT29 (colon), read-out: Cytoselectivities (nM) HT29; for Selectivity Index HT29: Table 13, S enantiomer, IC50(NFF)/IC50(cancer cell line)
Method: as §2, §3

T-47D cells = experiment: Cell survival assay (SRB); conditions: for IC50: read-out: Cytoselectivities (nM) T-47D; for Selectivity Index T-47D: Table 13, S enantiomer, IC50(NFF)/IC50(cancer cell line)
Method: as §2, §3

H520 cells = experiment: Cell survival assay (SRB); conditions: for IC50: read-out: Cytoselectivities (nM) H520; for Selectivity Index H520: Table 13, S enantiomer, IC50(NFF)/IC50(cancer cell line)
Method: as §2, §3

[5] = Homo sapiens, MM96L melanoma, 24 h with compound, further 72 h growth, SRB, read-out: IC50 (uM) MM96L
[6] = Homo sapiens, Table 12, read-out: Cytoselectivities (nM) MM96L
[7] = Table 12, read-out: Cytoselectivities (nM) MM96L

O=C(CCCCC[C@H](NC(=O)c1ccc(Br)cc1)C(=O)Nc1ccc(-c2ccccc2)cc1)NO [Example 161]
IC50 (MM96L melanoma cells; [5]): 0.074 µM
IC50 (MM96L melanoma cells; [6]): 0.121 µM
SI (Selectivity Index = IC50 (NFF)/IC50 (MM96L)) (MM96L melanoma cells): 2.5
Selectivity Index MM96L (MM96L melanoma cells): 1.5
IC50 (JAM ovarian cancer cells; Homo sapiens): 182 nM
Selectivity Index JAM (JAM ovarian cancer cells): 1.0
IC50 ([1]; Homo sapiens, MCF7): 149 nM
Selectivity Index MCF-7 [1]: 1.2
IC50 ([2]; Homo sapiens, DU-145): 149 nM
Selectivity Index DU145 [2]: 1.2
IC50 (SkMel28 melanoma cells; Homo sapiens): 168 nM
Selectivity Index SK-MEL-28 (SkMel28 melanoma cells): 1.1
IC50 ([3]; Homo sapiens): 158 nM
Selectivity Index CI80-13S [3]: 1.2
IC50 [4]: 0.185 µM
IC50 (PC-3 cells; Homo sapiens): 531 nM
Selectivity Index PC-3 (PC-3 cells): 0.3
IC50 (HOP62 cells; Homo sapiens, HOP-62): 261 nM
Selectivity Index HOP62 (HOP62 cells): 0.7
IC50 (SK-MEL-5 cells; Homo sapiens): 102 nM
Selectivity Index SK-MEL-5 (SK-MEL-5 cells): 1.8
IC50 (Col208 cells): 272 nM
Selectivity Index Col208 (Col208 cells): 0.6
IC50 (A549 cells; Homo sapiens): 335 nM
Selectivity Index A549 (A549 cells): 0.6
IC50 (HT29 cells; Homo sapiens, HT-29): 307 nM
Selectivity Index HT29 (HT29 cells): 0.6
IC50 (T-47D cells; Homo sapiens, T47D): 197 nM
Selectivity Index T-47D (T-47D cells): 0.9
IC50 (H520 cells; Homo sapiens, NCI-H520): 117 nM
Selectivity Index H520 (H520 cells): 1.6

O=C(/C=C/c1ccccc1)N[C@H](CCCCCC(=O)NO)C(=O)Nc1cccc2cccnc12 [146 R]
IC50 (MM96L melanoma cells; [7]): 0.045 µM
IC50 (JAM ovarian cancer cells; JAM): 163 nM
IC50 [1]: 51 nM
IC50 [2]: 63 nM
IC50 (SkMel28 melanoma cells): 87 nM
IC50 ([3]; CI80-13S): 91 nM
IC50 (PC-3 cells): 543 nM
IC50 (HOP62 cells): 133 nM
IC50 (SK-MEL-5 cells): 66 nM
IC50 (A549 cells): 196 nM
IC50 (HT29 cells): 272 nM
IC50 (T-47D cells; T-47D): 99 nM
IC50 (H520 cells; H520): 152 nM

O=C(CCCCC[C@@H](NC(=O)c1ccc(Br)cc1)C(=O)Nc1ccc(-c2ccccc2)cc1)NO [161 R]
IC50 (MM96L melanoma cells; [7]): 18.6 µM
IC50 (JAM ovarian cancer cells; JAM): 18600 nM
IC50 [1]: 13000 nM
IC50 [2]: 18600 nM
IC50 (SkMel28 melanoma cells): 18600 nM
IC50 ([3]; CI80-13S): 18600 nM
IC50 (PC-3 cells): 18600 nM
IC50 (HOP62 cells): 18600 nM
IC50 (SK-MEL-5 cells): 18600 nM
IC50 (A549 cells): 18600 nM
IC50 (HT29 cells): 18600 nM
IC50 (T-47D cells; T-47D): 18600 nM
IC50 (H520 cells; H520): 18600 nM

O=C(CCCCC[C@@H](NC(=O)c1cc2ccccc2[nH]1)C(=O)Nc1cccc2cccnc12)NO [132 R]
IC50 (MM96L melanoma cells; [7]): 0.018 µM
IC50 (JAM ovarian cancer cells; JAM): 211 nM
IC50 [1]: 42 nM
IC50 [2]: 33 nM
IC50 (SkMel28 melanoma cells): 43 nM
IC50 ([3]; CI80-13S): 27 nM
IC50 (PC-3 cells): 148 nM
IC50 (HOP62 cells): 63 nM
IC50 (SK-MEL-5 cells): 23 nM
IC50 (A549 cells): 121 nM
IC50 (HT29 cells): 238 nM
IC50 (T-47D cells; T-47D): 42 nM
IC50 (H520 cells; H520): 180 nM

CN(C)c1ccc(C(=O)N[C@H](CCCCCC(=O)NO)C(=O)Nc2cccc3cccnc23)cc1 [126 R]
IC50 (MM96L melanoma cells; [7]): 0.038 µM
IC50 (JAM ovarian cancer cells; JAM): 251 nM
IC50 [1]: 40 nM
IC50 [2]: 52 nM
IC50 (SkMel28 melanoma cells): 57 nM
IC50 ([3]; CI80-13S): 43 nM
IC50 (PC-3 cells): 387 nM
IC50 (HOP62 cells): 147 nM
IC50 (SK-MEL-5 cells): 44 nM
IC50 (A549 cells): 191 nM
IC50 (HT29 cells): 199 nM
IC50 (T-47D cells; T-47D): 63 nM
IC50 (H520 cells; H520): 188 nM

O=C(CCCCC[C@H](NC(=O)OCc1ccccc1)C(=O)Nc1cccc2cccnc12)NO [Example 148]
IC50 (MM96L melanoma cells; [5]): 0.043 µM
IC50 (MM96L melanoma cells; [6]): 0.108 µM
IC50 (MM96L melanoma cells; Homo sapiens, most preferred compounds, exemplary examples, read-out: potency of IC50 against the MM96 melanoma cells): ≤ 0.5 µM
SI (Selectivity Index = IC50 (NFF)/IC50 (MM96L)) (MM96L melanoma cells): 10.5
Selectivity Index MM96L (MM96L melanoma cells): 4
IC50 (JAM ovarian cancer cells; Homo sapiens): 194 nM
Selectivity Index JAM (JAM ovarian cancer cells): 2
IC50 ([1]; Homo sapiens, MCF7): 122 nM
Selectivity Index MCF-7 [1]: 4
IC50 ([2]; Homo sapiens, DU-145): 131 nM
Selectivity Index DU145 [2]: 3
IC50 (SkMel28 melanoma cells; Homo sapiens): 146 nM
Selectivity Index SK-MEL-28 (SkMel28 melanoma cells): 3
IC50 ([3]; Homo sapiens): 124 nM
Selectivity Index CI80-13S [3]: 4
IC50 [4]: 0.452 µM
IC50 (PC-3 cells; Homo sapiens): 528 nM
Selectivity Index PC-3 (PC-3 cells): 0.9
IC50 (HOP62 cells; Homo sapiens, HOP-62): 226 nM
Selectivity Index HOP62 (HOP62 cells): 2
IC50 (SK-MEL-5 cells; Homo sapiens): 70 nM
Selectivity Index SK-MEL-5 (SK-MEL-5 cells): 6
IC50 (Col208 cells): 122 nM
Selectivity Index Col208 (Col208 cells): 4
IC50 (A549 cells; Homo sapiens): 248 nM
Selectivity Index A549 (A549 cells): 2
IC50 (HT29 cells; Homo sapiens, HT-29): 334 nM
Selectivity Index HT29 (HT29 cells): 1.4
IC50 (T-47D cells; Homo sapiens, T47D): 93 nM
Selectivity Index T-47D (T-47D cells): 5
IC50 (H520 cells; Homo sapiens, NCI-H520): 118 nM
Selectivity Index H520 (H520 cells): 4

O=C(CCCCC[C@@H](NC(=O)OCc1ccccc1)C(=O)Nc1cccc2cccnc12)NO [148 R]
IC50 (MM96L melanoma cells; [7]): 0.022 µM
IC50 (JAM ovarian cancer cells; JAM): 65 nM
IC50 [1]: 29 nM
IC50 [2]: 39 nM
IC50 (SkMel28 melanoma cells): 43 nM
IC50 ([3]; CI80-13S): 29 nM
IC50 (PC-3 cells): 269 nM
IC50 (HOP62 cells): 65 nM
IC50 (SK-MEL-5 cells): 20 nM
IC50 (A549 cells): 104 nM
IC50 (HT29 cells): 139 nM
IC50 (T-47D cells; T-47D): 51 nM
IC50 (H520 cells; H520): 46 nM
